CC(C)c1ccc2sc3ccccc3c(=O)c2c1
Details | solubility (mole fraction)
in 1,2-dichloroethane, 306.25 K | 0.392
in 1,2-dichloroethane, 309.15 K | 0.424
in 1,2-dichloroethane, 311.25 K | 0.455
in 1,2-dichloroethane, 315.15 K | 0.486
in 1,2-dichloroethane, 318.15 K | 0.516
in 1,2-dichloroethane, 321.15 K | 0.546
in 1,2-dichloroethane, 324.65 K | 0.572
in 1,2-dichloroethane, 326.85 K | 0.615
in 1,4-dioxane, 307.15 K | 0.34
in 1,4-dioxane, 310.15 K | 0.381
in 1,4-dioxane, 314.05 K | 0.429
in 1,4-dioxane, 317.15 K | 0.475
in 1,4-dioxane, 320.05 K | 0.512
in 1,4-dioxane, 323.15 K | 0.543
in 1,4-dioxane, 326.65 K | 0.589
in 1,4-dioxane, 329.85 K | 0.637
in acetone, 299.15 K | 0.126
in acetone, 303.15 K | 0.167
in acetone, 307.15 K | 0.219
in acetone, 310.15 K | 0.266
in acetone, 314.25 K | 0.319
in acetone, 317.15 K | 0.358
in acetone, 320.15 K | 0.383
in acetone, 323.15 K | 0.417
in ethanol, 305.65 K | 0.0424
in ethanol, 307.95 K | 0.0493
in ethanol, 309.65 K | 0.0557
in ethanol, 312.15 K | 0.0703
in ethanol, 315.15 K | 0.1
in ethanol, 318.15 K | 0.154
in ethanol, 321.15 K | 0.26
in ethyl acetate, 305.25 K | 0.192
in ethyl acetate, 308.15 K | 0.24
in ethyl acetate, 311.65 K | 0.283
in ethyl acetate, 314.15 K | 0.325
in ethyl acetate, 317.05 K | 0.355
in ethyl acetate, 320.15 K | 0.409
in ethyl acetate, 323.65 K | 0.461
in ethyl acetate, 327.15 K | 0.511
in methanol, 299.15 K | 0.00556
in methanol, 302.15 K | 0.00643
in methanol, 305.15 K | 0.00761
in methanol, 308.15 K | 0.00911
in methanol, 311.15 K | 0.0113
in methanol, 314.15 K | 0.0145
in methanol, 317.15 K | 0.0196
in methanol, 320.15 K | 0.0264
in toluene, 304.65 K | 0.332
in toluene, 308.15 K | 0.374
in toluene, 311.65 K | 0.412
in toluene, 315.15 K | 0.453
in toluene, 318.15 K | 0.489
in toluene, 321.05 K | 0.526
